Measurements taken from BindingDB's records for doi:10.1021/jm401549m (Chiesi Farmaceutici, 2014).

Target: cGMP-specific 3',5'-cyclic phosphodiesterase PDE5A (Homo sapiens) (UniProt O76074)
Test: Inhibition of human platelet PDE5

- IC50: > 1000 nM
SMILES: CS(=O)(=O)Nc1ccc(C(=O)O[C@@H](Cc2c(Cl)c[n+]([O-])cc2Cl)c2ccc(OC(F)F)c(OCC3CC3)c2)cc1OCC1CC1 [Chf-6001]
